Measured values: patent publication US10456339B2, “Organic hydroperoxide reduction in perfumery raw materials” (FIRMENICH SA, priority 2017, dated 2019)
Several values for one entry are separate records, joined by “and”; a condition that tells them apart may be missing. Identical values can stand only once. Like-named read-outs stand apart in the source and are kept apart here.

Legend:
[1] = Reduction of POV in sunflower oil using 2-oxovaleric acid; conditions: 250 μL in 25 mL sunflower oil
Procedure: 25 mL of sunflower oil (from an off-the-shelf, opened 1 quart container with approximately 25% atmospheric headspace; storage time unknown) was placed in a 30 mL vial at room temperature. 250 μL of 2-oxovaleric acid was added. The vial was shaken and allowed to stand at ambient temperature in laboratory lighting on the benchtop. No further treatment was done prior to the POV testing.
POV measurements were made on the sunflower oil before and after the 2-oxovaleric acid treatment. The untreated oil was also re-measured periodically for comparison, since opening of the bottle replenishes atmospheric headspace and can cause the POV of the bottle contents to rise. The % reduction was always calculated versus the most recent POV value on the untreated oil, and if multiple measurements were made, an averaged value (shown in parentheses) was used for the calculation.

[2] = POV of model perfume treated with AKG DiDeanol salt; conditions: 1.0% w/v
Procedure: (§1) A model perfume was made using 90/10 v/v ethanol/water as a solvent, and a mixture of orange, grapefruit, and bergamot oils as the perfume oil. The mixed citrus oil was loaded into the solvent at approximately 19.4% v/v (6 mL oil into 25 mL solvent). Approximately 200 mg (1.0% w/v) of the AKG DiDeanol salt was dissolved in 20 mL of the mixed citrus perfume, and POV measurements were taken as a function of time after the addition. An untreated perfume sample was handled similarly to the treated perfume and also tested, because the POV can rise rapidly with handling of the sample (opening the bottle, agitation, etc.).

[3] = POV of spiked consumer product: Skin Cream; conditions: 1% (w/w); for POV of treated Skin Cream: spiked with oxidized limonene
Procedure: This Example reports the treatment of exemplary consumer product formulations. […] All of the samples had not been fragranced, so the POV was be associated with autooxidized base components. The five consumer product formulations were spiked with an extremely oxidized limonene that was produced in a photoreactor as a source of mixed limonene hydroperoxide isomers (the POV was 1434 mmol/L).
Sample Preparation: 40 mL (Sample #3) or 40 g (Samples #1, 2, 4 & 5) were each spiked with 0.4 mL of oxidized limonene and mixed until homogeneous. Half of each spiked consumer product sample was transferred to a second container, and treated as described in the table below with 0.5-1% (w/w) of a 2-oxocarboxylic acid ammonium salt, then mixed to homogeneity. […]

[4] = Surface tension of aqueous solution, pendant drop method; format: physicochemical; conditions: 0.14 weight % solution in water; pure water 71.57 mN/m
Procedure: The measurement was made on a Kruss DSA100S Tensiometer by the pendant drop method. […] This concentration was chosen so the results could be compared to the literature value for known surfactant sodium dodecyl sulfate (SDS) at 5 mM, which is approximately 0.15 weight %.

[5] = POV of mixed citrus oil treated with AKG-DiMeC12A salt; conditions: 1.0% w/v, within 72 hours (3 days) after addition
Text: In addition to the treatment done in a model perfume as described above, a similar experiment was done in mixed citrus oil. A sample of mixed citrus oil was made by combining lime, orange, grapefruit, lemon, mandarin, tangerine, and bergamot oils, so that a variety of terpene hydroperoxides would be present in the treated mixture being tested. […] An untreated mixed citrus oil sample was handled similarly to the treated oil and also tested, because the POV can rise rapidly with handling of the sample (opening the bottle, agitation, etc.).

[6] = Reduction of POV in sunflower oil using AKG-DiMeC12A; conditions: for POV of treated oil: 0.3062 g in 15 mL sunflower oil
Text: (§3) The mixture was allowed to stand on the benchtop in ambient laboratory light at room temperature, and POV measurements were taken periodically.

[7] = Reduction of POV in model perfume using AKG-HEI; conditions: 1.0% w/v; 7 days after addition
Procedure: (§2) The mixed citrus oil was loaded into the solvent at approximately 16.7% v/v (40 mL oil into 200 mL solvent, 240 mL total perfume). Approximately 150 mg (1.0% w/v) of the AKG-HEI salt was dissolved in 15 mL of the mixed citrus perfume, and POV measurements were taken as a function of time after the addition. An untreated perfume sample was handled similarly to the treated perfume and also tested, because the POV can rise rapidly with handling of the sample (opening the bottle, agitation, etc.).

[8] = POV of model perfume treated with AKG-mono(DiMeC12A); conditions: 1.0% w/v; within 26 hours after the addition
Procedure: as §1, with “AKG-monoMeC12A” for “AKG DiDeanol”

[9] = Reduction of POV in model perfume using PhPA-DiMeC10A; conditions: […] w/v; 7 days after addition
Procedure: as §2, with “164” for “150”, “(1.1%” for “(1.0%”, “PhPA-DiMeC10A” for “AKG-HEI”

[10] = Reduction of POV in sunflower oil using DiMeC10A-PhPA; conditions: for POV of treated oil: 0.3032 g in 15 mL sunflower oil
Text: as §3

[11] = 0.3358 g in 15 mL sunflower oil; 23 days; indistinguishable from BLANK
[12] = Reduction of POV in model perfume using oxaloacetic acid; conditions: 0.83% w/v; 24 hours after treatment
[13] = Reduction of POV in limonene using phenylglyoxylic acid; conditions: 200 mg in 20 mL, room temperature
Procedure: 20 mL of autoxidized limonene was placed in a 30 mL glass vial at room temperature, along with a stir bar and an argon gas blanket. 200 mg of phenylglyoxylic acid was added, which dissolved. The vial was shaken once and allowed to stand, while being monitored for POV value as a function of time.

[14] = Reduction of POV in citrus oil using pyruvic acid
Procedure: 50 mL of mixed citrus oils (orange, lemon, lime, mandarin, bergamot, and tangerine) were placed in a 100 round bottom flask at room temperature, along with a stir bar and an argon gas blanket.
A 4:1 v/v isopropanol/pyruvic acid solution was made. 20 mL of this pyruvic acid solution was dripped into the stirred citrus oils at a rate of 0.25 mL/minute via the use of a syringe pump.
When the addition was complete, 10 mL of water and 100 mg of anhydrous sodium carbonate was added to the flask, and the stirring was maintained. When the visible evolution of CO2 had stopped (about 2-4 minutes), the aqueous layer was removed with a pipette and discarded. POV measurements were made on the mixed citrus oil before and after the pyruvic acid treatment.

[15] = Reduction of POV in mixed citrus oil using α-oxo-2-furanacetic acid; conditions: for Treated POV: 400 mg in 20 mL mixed citrus oil; for POV reduction: vs untreated oil at same time
Procedure: 20 mL of mixed citrus oil was placed in a 30 mL glass vial at room temperature, along with a stir bar and an argon gas blanket. 400 mg of α-oxo-2-furanacetic acid was added. The vial was shaken once and allowed to stand, while being monitored for POV value as a function of time. […] In this way, the undissolved solid acts as a sink to maintain a steady, low concentration of α-oxo-2-furanacetic acid dissolved in the mixed citrus oil.
In this case, because the time between measurements was relatively long (days instead of minutes), there is the possibility that the untreated mixed citrus oil will oxidize further during the course of the experiment. Therefore, the POV of the treated oil was still compared with the POV of the untreated oil, but the measurement of the untreated oil was re-determined at each time point (rather than just a single, initial value being used).

[16] = Reduction of POV in model perfume using α-ketoglutaric acid; conditions: 1.2% w/v; 24 hours after treatment

Compound: CCCC(=O)C(=O)O [2-oxovaleric acid]
- POV, single measurements ([1]; 23 hours): 4.95 mmol/L and 4.67 mmol/L
- POV, single measurements ([1]; 46 hours): 5.34 mmol/L and 5.10 mmol/L
- POV, single measurements ([1]; 15 days): 2.27 mmol/L and 2.05 mmol/L and 1.99 mmol/L

Compound: CN(C)CCO.CN(C)CCO.O=C(O)CCC(=O)C(=O)O [AKG DiDeanol]
- POV Treated Perfume ([2]; 60 min): 5.95 mmol/L
- POV Treated Perfume ([2]; 75 min): 5.66 mmol/L
- POV Treated Perfume ([2]; 115 min): 4.96 mmol/L
- POV Treated Perfume ([2]; 195 min): 3.20 mmol/L
- POV Treated Perfume ([2]; 210 min): 3.08 mmol/L
- POV Treated Perfume ([2]; 300 min (5 hours)): 2.31 mmol/L
- POV Treated Perfume ([2]; 370 min): 1.73 mmol/L
- POV Treated Perfume ([2]; 380 min): 1.72 mmol/L
- POV Treated Perfume ([2]; […] (24 hours), indistinguishable from blank): 0.0 indistinguishable from mmol/L

Compound: CCCCCCCCCCCCN(C)C.CCCCCCCCCCCCN(C)C.O=C(O)CCC(=O)C(=O)O [AKG-DiMeC12A]
- % Reduction in POV ([3]; 140 minutes): 56.7%
- % Reduction in POV ([3]; 300 minutes (5 h)): 68.4%
- % Reduction in POV ([3]; 26 hrs): 84.6%
- % Reduction in POV ([3]; 4 days): 90.9%
- % Reduction in POV ([3]; 8 days): 93.0%
- % Reduction in POV ([3]; 15 days): 100.0%
- POV of treated Skin Cream ([3]; 140 minutes): 6.06 mmol/L
- POV of treated Skin Cream ([3]; 300 minutes (5 h)): 4.5 mmol/L
- POV of treated Skin Cream ([3]; 26 hrs): 2.08 mmol/L
- POV of treated Skin Cream ([3]; 4 days): 1.16 mmol/L
- POV of treated Skin Cream ([3]; 8 days): 0.82 mmol/L
- POV of treated Skin Cream ([3]; 15 days): 0 mmol/L
- surface tension [4]: 32.08 mN/m
- reduction in the POV [5]: 89.0%
- POV of treated oil ([6]; 50 minutes): 15.36 mmol/L
- POV of treated oil ([6]; 1320 mins (22 hrs)): 12.68 mmol/L
- POV of treated oil ([6]; 23 days): 3.05 mmol/L
- % Reduction in POV ([6]; 50 minutes): 7.2%
- % Reduction in POV ([6]; 1320 mins (22 hrs)): 23.5%
- % Reduction in POV ([6]; 23 days): 83.6%

Compound: O=C(O)CCC(=O)C(=O)O.O=C1NCCN1CCO.O=C1NCCN1CCO [AKG-HEI]
- reduction in POV relative to untreated material [7]: 92.1%

Compound: CCCCCCCCCCCCN(C)C.O=C(O)CCC(=O)C(=O)O [AKG-mono(DiMeC12A)]
- reduction in the POV [8]: total and complete reduction
- surface tension [4]: 32.93 mN/m

Compound: CCCCCCCCCCN(C)C.O=C(O)C(=O)Cc1ccccc1 [DiMeC10A-PhPA]
- reduction in POV relative to untreated material [9]: 87.2%
- solubility in sunflower oil ([10]; 0.3032 g in 15 mL): majority of the salt dissolved, but some undissolved solid remained
- POV of treated oil ([10]; 55 minutes): 3.78 mmol/L
- POV of treated oil ([10]; 140 minutes, indistinguishable from BLANK): 0.00 mmol/L
- POV of treated oil ([10]; 1320 mins (22 hrs), indistinguishable from BLANK): 0.00 mmol/L
- POV of treated oil ([10]; 23 days, indistinguishable from BLANK): 0.00 mmol/L
- % Reduction in POV ([10]; 55 minutes): 77.2%
- % Reduction in POV ([10]; 140 minutes): 100%
- % Reduction in POV ([10]; 1320 mins (22 hrs)): 100%
- % Reduction in POV ([10]; 23 days): 100%

Compound: CCCCCCCCCCN(C)C.O=C(O)C(=O)c1ccco1 [FAA-DiMeC10A]
- POV of treated oil [11]: 0.00 mmol/L

Compound: O=C(O)CC(=O)C(=O)O [oxaloacetic acid]
- reduction in the POV of the formulated perfume [12]: complete reduction

Compound: O=C(O)C(=O)c1ccccc1 [phenylglyoxylic acid]
- solubility in autoxidized limonene [13]: dissolved

Compound: CC(=O)C(=O)O [pyruvic acid]
- POV after treatment ([14]; 50 mL mixed citrus oils, 20 mL 4:1 v/v isopropanol/pyruvic acid at 0.25 mL/minute, POV before treatment 27.261 mEq/L): 4.786 mEq./L
- reduction in POV ([14]; after vs before pyruvic acid treatment): ~82%

Compound: O=C(O)C(=O)c1ccco1 [α-Oxo-2-furanacetic acid, α-oxo-2-furanacetic acid]
- solubility in mixed citrus oil ([15]; 400 mg in 20 mL): majority of the added α-oxo-2-furanacetic acid did not dissolve
- Treated POV ([15]; 2 days since addition): 18.566 mEq/L
- Treated POV ([15]; 4 days): 17.193 mEq/L
- Treated POV ([15]; 44 days): 1.106 mEq/L
- POV reduction ([15]; 2 days): 26.8%
- POV reduction ([15]; 4 days): 39.8%
- POV reduction ([15]; 44 days): 96.2%

Compound: O=C(O)CCC(=O)C(=O)O [α-ketoglutaric acid]
- reduction in the POV of the formulated perfume [16]: complete reduction
